In US12497365B2, “4-pyridinyl formamide compound or derivative thereof, preparation method therefor, herbicidal composition and use thereof” (Qingdao Kingagroot Chemical Compound Co., Ltd., priority 2019, dated 2025):

Assays:
[1] = test system: Echinochloa crusgalli, Scirpus juncoides, Bidens tripartita L., Sagittaria trifolia, Monochoria vaginalis; experiment: Weed control effect evaluation in rice field; format: in vivo, rice field weeds; details: weed seeds collected from Heilongjiang Province of China
Source text: Transplanted rice safety evaluation and weed control effect evaluation in rice field:
Rice field soil was loaded into a 1/1,000,000 ha pot. The seeds of Echinochloa crusgalli, Scirpus juncoides, Bidens tripartita L., Sagittaria trifolia, and Monochoria vaginalis were sowed and gently covered with soil, then left to stand still in greenhouse in the state of 0.5-1 cm of water storage. The tuber of Sagittaria trifolia was planted in the next day or 2 days later. It was kept at 3-4 cm of water storage thereafter. The weeds were treated by dripping the WP or SC water diluents prepared according to the common preparation method of the compounds of the present invention with pipette homogeneously to achieve specified effective amount when Echinochloa crusgalli, Scirpus juncoides, Bidens tripartita L., and Monochoria vaginalis reached 0.5 leaf stage and Sagittaria trifolia reached the time point of primary leaf stage.
The fertility condition of Echinochloa crusgalli, Scirpus juncoides, Bidens tripartita L., Sagittaria trifolia and Monochoria vaginalis 14 days after the treatment of the compound of the invention and the fertility condition of rice 21 days after the treatment of the compound of the invention respectively with the naked eye. Evaluate the weed control effect with the above 0-5 activity standard level, many compounds show excellent activity and selectivity. […]

[2] = test system: Abutilon theophrasti; experiment: Weeding effect in post-emergence stage; format: in vivo; details: active ingredient 2000 g/ha, 3 weeks after application, fresh weight control rate
Summary of the method: (§1)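 Seeds were covered with 0.5-2 cm soil and raised in a greenhouse for 2 weeks. At the 2-3 leaf stage, compound formulations (acetone, Tween 80, 1.5 liter/ha methyl oleate EC, water) were spray-tower applied at 2000-125 g/ha. After 3 further weeks, fresh weight control was graded.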

[3] = test system: Descurainia sophia; experiment: Weeding effect in post-emergence stage; format: in vivo; details: for Activity level (growth control rate), Descurainia sophia: active ingredient 250 g/ha; for Weeding effect, activity level (growth control rate), Descurainia sophia: active ingredient 2000 g/ha, 3 weeks after application, fresh weight control rate
Summary of the method: as §1

[4] = test system: Chenopodium album; experiment: Weeding effect in post-emergence stage; format: in vivo; details: active ingredient 2000 g/ha, 3 weeks after application, fresh weight control rate
Summary of the method: as §1

[5] = test system: Amaranthus retroflexus L.; experiment: Weeding effect in post-emergence stage; format: in vivo; details: active ingredient 2000 g/ha, 3 weeks after application, fresh weight control rate
Summary of the method: as §1

[6] = test system: Wheat; experiment: Crop selectivity in post-emergence stage; format: in vivo; details: active ingredient 250 g/ha
Source text: (§2) The activity level criteria for plant damage (i.e., growth control rate) are as follows:
(§3) The above growth control rates are fresh weight control rates.
(§4) Experiment on weeding effect in post-emergence stage: monocotyledonous and dicotyledonous weed seeds and major crop seeds (wheat, corn, rice, soybean, cotton, oilseed rape, millet, sorghum) were placed in plastic pots filled with soil, then covered with 0.5-2 cm of soil, allowed to grow in a good greenhouse environment. After 2 weeks of sowing, the test plants were treated in the 2-3 leaf stage. The tested compounds of the present invention were respectively dissolved in acetone at the dosage of 2000, 1000, 500, 250, 125 g/ha, then added with Tween 80 and 1.5 liter/ha of emulsifiable concentrate of methyl oleate as synergist, diluted with a certain amount of water to obtain a solution with a certain concentration, and sprayed with a spray tower onto the plants. After the application, the plants were cultured for 3 weeks in the greenhouse, and then the experimental results were listed in Table 1.
(§5) In addition, under the active ingredient of 250 g/ha, many compounds also show good crop selectivity and excellent control effect on key weeds.

[7] = test system: Sclerochloa dura; experiment: Weeding effect in post-emergence stage; format: in vivo; details: active ingredient 250 g/ha
Source text: as §2, §3, §4, §5

[8] = test system: Alopecurus myosuroides; experiment: Weeding effect in post-emergence stage; format: in vivo; details: active ingredient 250 g/ha
Source text: as §2, §3, §4, §5

[9] = test system: Alopecurus aequalis; experiment: Weeding effect in post-emergence stage; format: in vivo; details: active ingredient 250 g/ha
Source text: as §2, §3, §4, §5

[10] = test system: Beckmannia syzigachne; experiment: Weeding effect in post-emergence stage; format: in vivo; details: active ingredient 250 g/ha
Source text: as §2, §3, §4, §5

SMILES: COc1cnc(OC)n2nc(NS(=O)(=O)c3c(OCC(F)F)cccc3C(F)(F)F)nc12 [Penoxsulam, penoxsulam]
- Response of the rice field weeds to common doses of the herbicide [1]: resistant

SMILES: Cn1nnnc1NC(=O)c1ccnc(-c2ccccc2F)c1Cl [Compound 1-15]
- Weeding effect, activity level (growth control rate), Abutilon theophrasti [2]: 5 (Level 5: growth control rate is above 85%)
- Activity level (growth control rate), Descurainia sophia [3]: 5 (Level 5: growth control rate is above 85%)
- Weeding effect, activity level (growth control rate), Descurainia sophia [3]: 5 (Level 5: growth control rate is above 85%)
- Weeding effect, activity level (growth control rate), Chenopodium album [4]: 5 (Level 5: growth control rate is above 85%)
- Weeding effect, activity level (growth control rate), Amaranthus retroflexus L. [5]: 5 (Level 5: growth control rate is above 85%)
- Plant damage level (growth control rate), Wheat [6]: 0 (Level 0: growth control rate is less than 5%)
- Activity level (growth control rate), Sclerochloa dura [7]: 5 (Level 5: growth control rate is above 85%)
- Activity level (growth control rate), Alopecurus myosuroides [8]: 5 (Level 5: growth control rate is above 85%)
- Activity level (growth control rate), Alopecurus aequalis [9]: 5 (Level 5: growth control rate is above 85%)
- Activity level (growth control rate), Beckmannia syzigachne [10]: 5 (Level 5: growth control rate is above 85%)

SMILES: CCOC(=O)c1cnn(C)c1S(=O)(=O)NC(=O)Nc1nc(OC)cc(OC)n1 [Pyrazosulfuron-ethyl, pyrazosulfuron-ethyl]
- Response of the rice field weeds to common doses of the herbicide [1]: resistant

SMILES: Cn1nnnc1NC(=O)c1ccnc(-c2ccc(F)cc2)c1Cl [Compound 1-17]
- Weeding effect, activity level (growth control rate), Abutilon theophrasti [2]: 5 (Level 5: growth control rate is above 85%)
- Activity level (growth control rate), Descurainia sophia [3]: 5 (Level 5: growth control rate is above 85%)
- Weeding effect, activity level (growth control rate), Descurainia sophia [3]: 5 (Level 5: growth control rate is above 85%)
- Weeding effect, activity level (growth control rate), Chenopodium album [4]: 5 (Level 5: growth control rate is above 85%)
- Weeding effect, activity level (growth control rate), Amaranthus retroflexus L. [5]: 5 (Level 5: growth control rate is above 85%)
- Plant damage level (growth control rate), Wheat [6]: 0 (Level 0: growth control rate is less than 5%)
- Activity level (growth control rate), Sclerochloa dura [7]: 5 (Level 5: growth control rate is above 85%)
- Activity level (growth control rate), Alopecurus myosuroides [8]: 5 (Level 5: growth control rate is above 85%)
- Activity level (growth control rate), Alopecurus aequalis [9]: 5 (Level 5: growth control rate is above 85%)
- Activity level (growth control rate), Beckmannia syzigachne [10]: 5 (Level 5: growth control rate is above 85%)
